Experimental findings from patent US12371428B2 (Exelixis, Inc., priority 2019, dated 2025) are described below.

The IC50 is the midpoint of a concentration-inhibition curve.

In test [1] the target is Mer (phospho-Mer, MERTK-transfected 293A cells) (Homo sapiens (Human), UniProt Q12866). The test can be described thus: Mer autophosphorylation ELISA in transient transfected 293A cells (Example H). Type of test: cell-based. Particulars: cellular activity; Mer autophosphorylation ELISA in transient transfected 293A cells. Summed up: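 Inhibition of cellular Mer autophosphorylation is determined in 293A cells transiently expressing human MERTK after 1 h compound exposure (8 concentrations, serum-free, 0.3% DMSO). Phospho-Mer in clarified lysates is measured by ELISA, with DMSO and reference-inhibitor wells defining the 100% and 0% activity limits.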
Sequence of Mer (phospho-Mer, MERTK-transfected 293A cells) (Q12866 21-999): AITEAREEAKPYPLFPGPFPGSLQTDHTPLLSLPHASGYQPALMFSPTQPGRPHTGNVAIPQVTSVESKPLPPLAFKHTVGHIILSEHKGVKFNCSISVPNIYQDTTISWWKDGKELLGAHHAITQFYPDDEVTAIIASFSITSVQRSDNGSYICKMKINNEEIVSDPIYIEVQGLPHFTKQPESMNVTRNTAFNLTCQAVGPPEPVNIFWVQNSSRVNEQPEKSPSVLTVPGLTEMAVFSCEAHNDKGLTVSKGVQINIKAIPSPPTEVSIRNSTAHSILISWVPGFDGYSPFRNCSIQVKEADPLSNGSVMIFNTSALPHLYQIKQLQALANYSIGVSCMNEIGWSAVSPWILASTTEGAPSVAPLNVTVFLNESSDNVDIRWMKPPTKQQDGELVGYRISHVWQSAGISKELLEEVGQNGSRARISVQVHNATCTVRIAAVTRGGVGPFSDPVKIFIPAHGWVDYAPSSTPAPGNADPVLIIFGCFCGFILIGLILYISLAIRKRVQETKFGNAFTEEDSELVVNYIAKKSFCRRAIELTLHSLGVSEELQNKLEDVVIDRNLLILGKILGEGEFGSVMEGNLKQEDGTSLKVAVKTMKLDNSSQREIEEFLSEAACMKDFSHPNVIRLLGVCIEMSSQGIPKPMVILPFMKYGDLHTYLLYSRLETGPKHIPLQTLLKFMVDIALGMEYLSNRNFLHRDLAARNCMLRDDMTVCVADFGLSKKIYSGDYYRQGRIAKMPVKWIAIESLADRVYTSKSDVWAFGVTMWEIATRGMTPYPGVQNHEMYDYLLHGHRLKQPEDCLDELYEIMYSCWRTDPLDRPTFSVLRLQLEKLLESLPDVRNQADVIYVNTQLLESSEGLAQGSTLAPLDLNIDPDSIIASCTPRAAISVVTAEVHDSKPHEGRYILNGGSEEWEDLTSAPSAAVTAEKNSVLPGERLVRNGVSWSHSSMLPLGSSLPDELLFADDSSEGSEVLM
(In general: In an ELISA, binding on a coated surface is turned into a signal by an enzyme label.)

Test [2] has as its target Human KDR (residues 790-1356) (Homo sapiens (Human), UniProt P35968). The test can be described thus: Human KDR kinase assay, HTRF KinEase (Example B-2). Particulars: protocol of Example B-2 (other compounds). The format is biochemical. A digest of the protocol: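 Human KDR residues 790-1356 (0.1 ng/well) in buffer with 5 mM MgCl2, 1 mM MnCl2, 1 mM DTT, biotinylated peptide substrate, ATP at Km (4.0 μM), 3% DMSO, 10 compound concentrations; 40 min, room temperature. EDTA stop, streptavidin-XL665/Eu-TK antibody HTRF read 665/620 nm; 4-parameter IC50.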
(TR-FRET usually uses a lanthanide donor and a delayed reading to cut background.)

Test [3] deals with Human MET (residues 956-1390) (Homo sapiens (Human), UniProt P08581). In words: Human Met kinase assay, HTRF KinEase (Example D-2). Type of test: biochemical. The conditions noted are these: protocol of Example D-2 (other compounds); read-out: c-Met IC50. A digest of the protocol: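 IC50 values come from a 4-parameter logistic fit of the […] fluorescence ratio, set between DMSO (100%) and reference compound at 1 μM (0%). Reactions held MET 956-1390 at 0.1 ng/well, ATP at Km, biotinylated peptide, 5 mM MgCl2, 1 mM MnCl2, 1 mM DTT and 3% DMSO, and ran 40 min at room temperature before streptavidin-XL665/Eu-antibody detection.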
Sequence of Human MET (residues 956-1390) (P08581 956-1390): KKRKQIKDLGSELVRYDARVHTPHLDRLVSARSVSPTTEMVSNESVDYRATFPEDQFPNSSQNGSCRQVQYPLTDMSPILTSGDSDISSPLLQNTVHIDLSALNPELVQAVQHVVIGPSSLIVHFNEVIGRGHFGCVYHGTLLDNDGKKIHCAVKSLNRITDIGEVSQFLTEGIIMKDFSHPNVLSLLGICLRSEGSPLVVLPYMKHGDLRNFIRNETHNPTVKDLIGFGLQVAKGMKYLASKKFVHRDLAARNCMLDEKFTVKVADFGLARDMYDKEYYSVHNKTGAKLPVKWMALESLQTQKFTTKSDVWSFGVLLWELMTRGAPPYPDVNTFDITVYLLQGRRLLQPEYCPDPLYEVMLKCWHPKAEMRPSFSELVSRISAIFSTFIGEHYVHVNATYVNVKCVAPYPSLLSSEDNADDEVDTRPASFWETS

The target of test [4] is Met (phospho-Met, HGF-stimulated PC-3 prostate cancer cells) (Homo sapiens (Human), UniProt P08581). In words: Met autophosphorylation ELISA in PC-3 cells (Example F). Type of test: cell-based. Particulars: cellular activity; Met autophosphorylation ELISA in PC-3 cells; read-out: c-Met IC50. Summed up: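 PC-3 cells, serum-starved 3 h, were treated with compounds (8-point dose curve, 0.3% DMSO final) for 1 h, then stimulated with 100 ng/mL recombinant human HGF for 10 min. Lysate phospho-Met (panTyr) was quantified by sandwich ELISA; IC50 from 4-parameter logistic fit.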
Sequence of Met (phospho-Met, HGF-stimulated PC-3 prostate cancer cells) (P08581 25-1390): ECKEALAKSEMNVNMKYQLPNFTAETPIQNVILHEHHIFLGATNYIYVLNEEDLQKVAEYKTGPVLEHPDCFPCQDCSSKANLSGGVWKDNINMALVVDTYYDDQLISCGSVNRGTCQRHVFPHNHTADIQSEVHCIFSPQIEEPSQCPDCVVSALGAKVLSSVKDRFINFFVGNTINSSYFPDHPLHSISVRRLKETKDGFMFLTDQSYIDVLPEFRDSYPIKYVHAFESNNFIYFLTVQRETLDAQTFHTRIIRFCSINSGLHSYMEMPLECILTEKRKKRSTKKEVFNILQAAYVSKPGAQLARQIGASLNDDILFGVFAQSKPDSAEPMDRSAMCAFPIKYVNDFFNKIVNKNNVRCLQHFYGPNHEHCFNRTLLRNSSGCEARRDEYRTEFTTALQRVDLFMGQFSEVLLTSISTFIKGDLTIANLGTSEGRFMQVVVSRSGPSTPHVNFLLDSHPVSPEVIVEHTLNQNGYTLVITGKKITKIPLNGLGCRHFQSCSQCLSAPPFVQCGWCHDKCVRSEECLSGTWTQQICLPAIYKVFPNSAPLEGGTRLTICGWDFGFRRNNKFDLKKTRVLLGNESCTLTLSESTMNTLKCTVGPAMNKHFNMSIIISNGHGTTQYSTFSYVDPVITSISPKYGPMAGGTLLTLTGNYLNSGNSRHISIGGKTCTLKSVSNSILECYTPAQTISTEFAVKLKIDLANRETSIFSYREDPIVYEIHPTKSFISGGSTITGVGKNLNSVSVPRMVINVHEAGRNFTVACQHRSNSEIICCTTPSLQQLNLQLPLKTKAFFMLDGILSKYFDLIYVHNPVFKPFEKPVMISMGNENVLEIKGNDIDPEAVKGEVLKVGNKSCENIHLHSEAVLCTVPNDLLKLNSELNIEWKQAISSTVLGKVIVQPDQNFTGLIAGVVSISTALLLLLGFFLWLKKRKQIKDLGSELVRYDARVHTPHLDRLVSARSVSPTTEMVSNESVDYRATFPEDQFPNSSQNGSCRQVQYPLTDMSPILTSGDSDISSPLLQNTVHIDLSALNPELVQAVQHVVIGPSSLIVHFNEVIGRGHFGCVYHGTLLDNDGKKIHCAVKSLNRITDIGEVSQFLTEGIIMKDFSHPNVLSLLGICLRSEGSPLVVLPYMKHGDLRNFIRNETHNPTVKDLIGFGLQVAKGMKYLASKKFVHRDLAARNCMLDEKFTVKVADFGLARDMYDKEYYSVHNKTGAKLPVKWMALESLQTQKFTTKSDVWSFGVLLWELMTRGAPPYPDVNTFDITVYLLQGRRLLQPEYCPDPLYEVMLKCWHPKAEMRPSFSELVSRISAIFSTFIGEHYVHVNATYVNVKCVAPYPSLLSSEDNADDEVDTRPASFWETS

Sequence of Human KDR (residues 790-1356) (P35968 790-1356): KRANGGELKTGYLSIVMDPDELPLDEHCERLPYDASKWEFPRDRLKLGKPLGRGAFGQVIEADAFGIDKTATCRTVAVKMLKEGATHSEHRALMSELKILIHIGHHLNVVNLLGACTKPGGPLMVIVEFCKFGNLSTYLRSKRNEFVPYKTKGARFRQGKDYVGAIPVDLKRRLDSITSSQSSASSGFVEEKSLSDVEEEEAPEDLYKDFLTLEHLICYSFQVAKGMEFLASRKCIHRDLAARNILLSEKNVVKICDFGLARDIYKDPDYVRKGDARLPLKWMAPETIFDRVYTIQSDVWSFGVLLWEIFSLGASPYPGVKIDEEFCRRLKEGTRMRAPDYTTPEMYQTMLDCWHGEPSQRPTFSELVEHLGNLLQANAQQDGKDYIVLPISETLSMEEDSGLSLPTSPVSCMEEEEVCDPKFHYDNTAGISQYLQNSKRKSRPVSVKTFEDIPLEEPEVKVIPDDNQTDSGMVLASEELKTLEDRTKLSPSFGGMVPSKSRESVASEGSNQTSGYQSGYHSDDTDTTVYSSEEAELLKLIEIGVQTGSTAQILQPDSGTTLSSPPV

Consider `COc1cc2nccc(Oc3ccc(NC(=O)c4cnc(C)c(-c5ccc(F)cc5)c4O)cc3F)c2nc1OC(C)C` [Compound 415, N-[3-fluoro-4-[(7-methoxy-6-propan-2-yloxy-1,5-naphthyridin-4-yl)oxy]phenyl]-5-(4-fluorophenyl)-4-hydroxy-6-methylpyridine-3-carboxamide], for which the 50% inhibitory concentration (IC50) in test [1] was < 100 nM; in test [2], 100 to 300 nM; in test [3], < 100 nM; in test [4], < 100 nM.
As for `COc1cc2nccc(Oc3ccc(NC(=O)c4cnc(C)c(-c5ccc(F)cc5C)c4O)cc3F)c2nc1OC(C)C` [Compound 416, N-[3-fluoro-4-[(7-methoxy-6-propan-2-yloxy-1,5-naphthyridin-4-yl)oxy]phenyl]-5-(4-fluoro-2-methylphenyl)-4-hydroxy-6-methylpyridine-3-carboxamide], the IC50 in test [1] was < 100 nM; in test [2] it was > 300 nM; in test [3], < 100 nM; in test [4], < 100 nM.
With `COc1cnc2c(Oc3ccc(NC(=O)c4cnc(C)c(-c5c(C)cc(F)cc5C)c4O)cc3F)ccnc2c1` [Compound 417, 5-(4-fluoro-2,6-dimethylphenyl)-N-[3-fluoro-4-[(7-methoxy-1,5-naphthyridin-4-yl)oxy]phenyl]-4-hydroxy-6-methylpyridine-3-carboxamide], the IC50 is 100 to 300 nM in test [1], > 300 nM in test [2], < 100 nM in test [3] and < 100 nM in test [4].
Consider `CCc1cnc2c(Oc3ccc(NC(=O)c4cnc(C)c(-c5ccc(F)cc5)c4O)cc3F)ccnc2c1` [Compound 418, N-[4-[(7-ethyl-1,5-naphthyridin-4-yl)oxy]-3-fluorophenyl]-5-(4-fluorophenyl)-4-hydroxy-6-methylpyridine-3-carboxamide], for which the half-inhibitory concentration (IC50) in test [1] was < 100 nM; in test [2], 100 to 300 nM; in test [3], < 100 nM; in test [4] it was < 100 nM.
`CCc1cnc2c(Oc3ccc(NC(=O)c4cnc(C)c(-c5ccc(F)cc5C)c4O)cc3F)ccnc2c1` [Compound 419, N-[4-[(7-ethyl-1,5-naphthyridin-4-yl)oxy]-3-fluorophenyl]-5-(4-fluoro-2-methylphenyl)-4-hydroxy-6-methylpyridine-3-carboxamide]: the IC50 in test [1] was < 100 nM; in test [2], > 300 nM; in test [3] it was < 100 nM; in test [4], < 100 nM.
With `CCc1cc2nccc(Oc3ccc(NC(=O)c4cnc(C)c(-c5ccc(F)cc5)c4O)cc3F)c2nc1OC` [Compound 420, N-[4-[(7-ethyl-6-methoxy-1,5-naphthyridin-4-yl)oxy]-3-fluorophenyl]-5-(4-fluorophenyl)-4-hydroxy-6-methylpyridine-3-carboxamide], the half-maximal inhibitory concentration (IC50) is < 100 nM in test [1], 100 to 300 nM in test [2], 100 to 300 nM in test [3] and < 100 nM in test [4].
Take `CCc1cc2nccc(Oc3ccc(NC(=O)c4cnc(C)c(-c5ccc(F)cc5C)c4O)cc3F)c2nc1OC` [Compound 421, N-[4-[(7-ethyl-6-methoxy-1,5-naphthyridin-4-yl)oxy]-3-fluorophenyl]-5-(4-fluoro-2-methylphenyl)-4-hydroxy-6-methylpyridine-3-carboxamide]: the IC50 in test [1] was < 100 nM; in test [2] it was > 300 nM; in test [3] it was 100 to 300 nM; in test [4], < 100 nM.
With `C=Cc1cc2nccc(Oc3ccc(NC(=O)c4cnc(C)c(-c5ccc(F)cc5)c4O)cc3F)c2nc1OC` [Compound 422, N-[4-[(7-ethenyl-6-methoxy-1,5-naphthyridin-4-yl)oxy]-3-fluorophenyl]-5-(4-fluorophenyl)-4-hydroxy-6-methylpyridine-3-carboxamide], the half-maximal inhibitory concentration (IC50) in test [1], in test [2], in test [3] and in test [4] was < 100 nM each time.
With `C=Cc1cc2nccc(Oc3ccc(NC(=O)c4cnc(C)c(-c5ccc(F)cc5C)c4O)cc3F)c2nc1OC` [Compound 423, N-[4-[(7-ethenyl-6-methoxy-1,5-naphthyridin-4-yl)oxy]-3-fluorophenyl]-5-(4-fluoro-2-methylphenyl)-4-hydroxy-6-methylpyridine-3-carboxamide], the IC50 in test [1] was < 100 nM; in test [2] it was > 300 nM; in test [3], 100 to 300 nM; in test [4] it was < 100 nM.
Consider `COc1cc2nccc(Oc3ccc(NC(=O)c4cnc(C)c(-c5ccc(F)cc5)c4O)cc3F)c2nc1OCCCN1CCOCC1` [Compound 424, N-[3-fluoro-4-[[7-methoxy-6-(3-morpholin-4-ylpropoxy)-1,5-naphthyridin-4-yl]oxy]phenyl]-5-(4-fluorophenyl)-4-hydroxy-6-methylpyridine-3-carboxamide], for which the half-inhibitory concentration (IC50) in test [1], in test [2], in test [3] and in test [4] was < 100 nM in each case.
For the compound `COc1cc2nccc(Oc3ccc(NC(=O)c4cnc(C)c(-c5ccc(F)cc5C)c4O)cc3F)c2nc1OCCCN1CCOCC1` [Compound 425, N-[3-fluoro-4-[[7-methoxy-6-(3-morpholin-4-ylpropoxy)-1,5-naphthyridin-4-yl]oxy]phenyl]-5-(4-fluoro-2-methylphenyl)-4-hydroxy-6-methylpyridine-3-carboxamide], the IC50 in test [1], in test [2], in test [3] and in test [4] was < 100 nM each time.
For the compound `Cc1cc2nccc(Oc3ccc(NC(=O)c4cnc(C)c(-c5ccc(F)cc5)c4O)cc3F)c2nc1F` [Compound 426, N-[3-fluoro-4-[(6-fluoro-7-methyl-1,5-naphthyridin-4-yl)oxy]phenyl]-5-(4-fluorophenyl)-4-hydroxy-6-methylpyridine-3-carboxamide], the IC50 in test [1] is < 100 nM; in test [2], 100 to 300 nM; in test [3] it was < 100 nM; in test [4], < 100 nM.
For `Cc1cc(F)ccc1-c1c(C)ncc(C(=O)Nc2ccc(Oc3ccnc4cc(C)c(F)nc34)c(F)c2)c1O` [Compound 427, N-[3-fluoro-4-[(6-fluoro-7-methyl-1,5-naphthyridin-4-yl)oxy]phenyl]-5-(4-fluoro-2-methylphenyl)-4-hydroxy-6-methylpyridine-3-carboxamide], the concentration for half-maximal inhibition (IC50) in test [1] is < 100 nM; in test [2], > 300 nM; in test [3], 100 to 300 nM; in test [4], < 100 nM.
Turning to `Cc1cc(F)ccc1-c1c(C)nc(C)c(C(=O)Nc2ccc(Oc3ccnc4cc(C)c(F)nc34)c(F)c2)c1O` [Compound 428, N-[3-fluoro-4-[(6-fluoro-7-methyl-1,5-naphthyridin-4-yl)oxy]phenyl]-5-(4-fluoro-2-methylphenyl)-4-hydroxy-2,6-dimethylpyridine-3-carboxamide], the IC50 was < 100 nM in test [1], 100 to 300 nM in test [2], < 100 nM in test [3] and < 100 nM in test [4].
Regarding `Cc1cc(F)ccc1-c1c(C)n(C)cc(C(=O)Nc2ccc(Oc3ccnc4cc(C)c(F)nc34)c(F)c2)c1=O` [Compound 429, N-[3-fluoro-4-[(6-fluoro-7-methyl-1,5-naphthyridin-4-yl)oxy]phenyl]-5-(4-fluoro-2-methylphenyl)-1,6-dimethyl-4-oxopyridine-3-carboxamide], the 50% inhibitory concentration (IC50) in test [1] was < 100 nM; in test [2], > 300 nM; in test [3], < 100 nM; in test [4], < 100 nM.
